Results reported in ChEMBL document CHEMBL5120927, “LEGO-Lipophosphonoxins: A Novel Approach in Designing Membrane Targeting Antimicrobials” (J Med Chem, 2022).

Assays:
[1] = Cytotoxicity against human HepG2 cells assessed as reduction in cell viability; type: toxicity, cell-based
[2] = system: Staphylococcus aureus; assay: Antibacterial activity against Staphylococcus aureus ATCC 29213 = CCM 4223 assessed as inhibition of bacterial growth incubated for 24 hrs in presence of BSA by microdilution assay; type: functional
[3] = system: Escherichia coli; assay: Antibacterial activity against Escherichia coli ATCC 25922 = CCM 3954 assessed as inhibition of bacterial growth incubated for 24 hrs in presence of BSA by microdilution assay; type: functional
[4] = system: Enterococcus faecalis; assay: Antibacterial activity against Enterococcus faecalis ATCC 29212 = CCM 4224 assessed as inhibition of bacterial growth incubated for 24 hrs by microdilution assay; type: functional
[5] = system: Pseudomonas aeruginosa; assay: Antibacterial activity against multidrug-resistant Pseudomonas aeruginosa assessed as reduction in microbial growth incubated for 24 hrs by microdilution assay; type: functional
[6] = system: Staphylococcus epidermidis; assay: Antibacterial activity against Staphylococcus epidermidis CCM 7221 assessed as inhibition of bacterial growth incubated for 24 hrs by microdilution assay; type: functional
[7] = system: Escherichia coli; assay: Antibacterial activity against Escherichia coli ATCC 25922 = CCM 3954 assessed as inhibition of bacterial growth incubated for 24 hrs by microdilution assay; type: functional
[8] = system: Enterococcus faecium; assay: Antibacterial activity against vancomycin resistant Enterococcus faecium 419/ANA assessed as reduction in microbial growth incubated for 24 hrs by microdilution assay; type: functional
[9] = system: Staphylococcus aureus; assay: Antibacterial activity against methicillin resistant Staphylococcus aureus 4591/A assessed as reduction in microbial growth incubated for 24 hrs by microdilution assay; type: functional
[10] = Gradient chromatographic hydrophobicity index of the compound at pH 3.7 by HPLC analysis; type: ADME
[11] = system: Pseudomonas aeruginosa; assay: Antibacterial activity against Pseudomonas aeruginosa ATCC 27853 = CCM 3955 assessed as inhibition of bacterial growth incubated for 24 hrs by microdilution assay; type: functional
[12] = system: Staphylococcus aureus; assay: Antibacterial activity against Staphylococcus aureus ATCC 29213 = CCM 4223 assessed as inhibition of bacterial growth incubated for 24 hrs by microdilution assay; type: functional
[13] = Hemolytic activity in human RBC assessed as haemoglobin release measured after 3 hr; type: toxicity, cell-based, Erythrocyte; conditions: red blood cells (erythrocytes)
[14] = system: Escherichia coli; assay: Antibacterial activity against multidrug-resistant Escherichia coli CE5556 expressing CTX-M-15 assessed as reduction in microbial growth incubated for 24 hrs by microdilution assay; type: functional

Cl.Cl.Cl.Cl.Cl.Cl.NCCCN(CCCN)CCP(=O)(OCCCOP(=O)(CCN(CCCN)CCCN)OCCC12CC3CC(CC(C3)C1)C2)OCCC12CC3CC(CC(C3)C1)C2 (stereo not given)
CC50 [1]: 93.6 µM | MIC [2]: 2 µg/mL | MIC [3]: 1 µg/mL | MIC [4]: 2 µg/mL | MIC [5]: 4 µg/mL | MIC [6]: 2 µg/mL | MIC [7]: 2 µg/mL | MIC [8]: 32 µg/mL | MIC [9]: 1 µg/mL | CHI [10]: 36.9 | MIC [11]: 16 µg/mL | MIC [12]: 1 µg/mL | HC50 at 3 h [13]: 196 µg/mL | MIC [14]: 2 µg/mL

Cl.Cl.Cl.Cl.Cl.Cl.NCCCN(CCCN)CCP(=O)(OCCCOP(=O)(CCN(CCCN)CCCN)OCC12CC3CC(CC(C3)C1)C2)OCC12CC3CC(CC(C3)C1)C2 (stereo not given)
CC50 [1]: > 99 µM | MIC [2]: 4 µg/mL | MIC [3]: 8 µg/mL | MIC [4]: 8 µg/mL | MIC [5]: 16 µg/mL | MIC [6]: 2 µg/mL | MIC [7]: 8 µg/mL | MIC [8]: 64 µg/mL | MIC [9]: 4 µg/mL | CHI [10]: 32.6 | MIC [11]: 64 µg/mL | MIC [12]: 4 µg/mL | HC50 at 3 h [13]: > 500 µg/mL | MIC [14]: 16 µg/mL

CCC/C=C\CCOP(=O)(CCN(CCCN)CCCN)OCCCOP(=O)(CCN(CCCN)CCCN)OCC/C=C\CCC.Cl.Cl.Cl.Cl.Cl.Cl (stereo not given)
CC50 [1]: > 99 µM | MIC [2]: 64 µg/mL | MIC [3]: > 128 µg/mL | MIC [4]: > 128 µg/mL | MIC [5]: 128 µg/mL | MIC [6]: 8 µg/mL | MIC [7]: > 128 µg/mL | MIC [8]: > 128 µg/mL | MIC [9]: 32 µg/mL | CHI [10]: 23.4 | MIC [11]: 128 µg/mL | MIC [12]: 64 µg/mL | HC50 at 3 h [13]: > 200 µg/mL | MIC [14]: > 128 µg/mL

CCCCCCOP(=O)(CCN(CCCN)CCCN)OCCCCCCCCCCOP(=O)(CCN(CCCN)CCCN)OCCCCCC.Cl.Cl.Cl.Cl.Cl.Cl (stereo not given)
CC50 [1]: 17.5 µM | MIC [2]: 3 µg/mL | MIC [3]: 1 µg/mL | MIC [4]: 4 µg/mL | MIC [5]: 8 µg/mL | MIC [6]: 0.5 µg/mL | MIC [7]: 0.5 µg/mL | MIC [8]: 32 µg/mL | MIC [9]: 1 µg/mL | CHI [10]: 34.8 | MIC [11]: 4 µg/mL | MIC [12]: 0.5 µg/mL | HC50 at 3 h [13]: 743 µg/mL | MIC [14]: 8 µg/mL

CCCCCCOP(=O)(CCN(CCCN)CCCN)OCCCCCCCCOP(=O)(CCN(CCCN)CCCN)OCCCCCC.Cl.Cl.Cl.Cl.Cl.Cl (stereo not given)
CC50 [1]: > 99 µM | MIC [2]: 2 µg/mL | MIC [3]: 8 µg/mL | MIC [4]: 16 µg/mL | MIC [5]: 64 µg/mL | MIC [6]: 0.5 µg/mL | MIC [7]: 1 µg/mL | MIC [8]: > 128 µg/mL | MIC [9]: 2 µg/mL | CHI [10]: 31.4 | MIC [11]: 16 µg/mL | MIC [12]: 1 µg/mL | HC50 at 3 h [13]: > 500 µg/mL | MIC [14]: 8 µg/mL

CCCCCCCCOP(=O)(CCN(CCN)CCN)OCCCCCCOP(=O)(CCN(CCN)CCN)OCCCCCCCC.Cl.Cl.Cl.Cl.Cl.Cl (stereo not given)
CC50 [1]: 80.6 µM | MIC [2]: 5 µg/mL | MIC [3]: 1 µg/mL | MIC [4]: 1 µg/mL | MIC [5]: 2 µg/mL | MIC [6]: 0.5 µg/mL | MIC [7]: 1 µg/mL | MIC [8]: 4 µg/mL | MIC [9]: 0.5 µg/mL | CHI [10]: 43.2 | MIC [11]: 2 µg/mL | MIC [12]: 0.5 µg/mL | HC50 at 3 h [13]: 79 µg/mL | MIC [14]: 1 µg/mL

CC(C)COP(=O)(CCN(CCCN)CCCN)OCCCCCCCCCCCCOP(=O)(CCN(CCCN)CCCN)OCC(C)C.Cl.Cl.Cl.Cl.Cl.Cl (stereo not given)
CC50 [1]: 56.2 µM | MIC [2]: 16 µg/mL | MIC [3]: > 128 µg/mL | MIC [4]: 32 µg/mL | MIC [5]: 16 µg/mL | MIC [6]: 1 µg/mL | MIC [7]: 128 µg/mL | MIC [8]: 128 µg/mL | MIC [9]: 4 µg/mL | CHI [10]: 31.4 | MIC [11]: 32 µg/mL | MIC [12]: 4 µg/mL | HC50 at 3 h [13]: 170 µg/mL | MIC [14]: > 128 µg/mL

CCC/C=C\CCOP(=O)(CCN(CCCN)CCCN)OCCCCCCOP(=O)(CCN(CCCN)CCCN)OCC/C=C\CCC.Cl.Cl.Cl.Cl.Cl.Cl (stereo not given)
CC50 [1]: > 99 µM | MIC [2]: 16 µg/mL | MIC [3]: 32 µg/mL | MIC [4]: > 128 µg/mL | MIC [5]: 128 µg/mL | MIC [6]: 1 µg/mL | MIC [7]: 16 µg/mL | MIC [8]: > 128 µg/mL | MIC [9]: 4 µg/mL | CHI [10]: 29.6 | MIC [11]: 128 µg/mL | MIC [12]: 4 µg/mL | HC50 at 3 h [13]: > 200 µg/mL | MIC [14]: 32 µg/mL

CCCCCCCCOP(=O)(CCN(CCCN)CCCN)OCCCCCCCCOP(=O)(CCN(CCCN)CCCN)OCCCCCCCC.Cl.Cl.Cl.Cl.Cl.Cl (stereo not given)
MIC [2]: 0.25 µg/mL | MIC [3]: 0.5 µg/mL | MIC [4]: 1 µg/mL | MIC [5]: 2 µg/mL | MIC [6]: 3 µg/mL | MIC [7]: 1 µg/mL | MIC [8]: 4 µg/mL | MIC [9]: 5 µg/mL | CHI [10]: 38.7 | MIC [11]: 2 µg/mL | MIC [12]: 0.5 µg/mL | HC50 at 3 h [13]: 683 µg/mL | MIC [14]: 1 µg/mL
